Assay results reported in US20040086880A1, “Method of producing nucleic acid molecules with reduced secondary structure” (priority 1999, published 2004).

Legend:
T7 RNA polymerase = target: T1, T7 RNA polymerase (Escherichia phage T7, UniProt P00573); assay: Transcription of ribo-UNA from linearized DNA template; assay type: biochemical; settings: substituted for ATP and UTP; 37° C., one hour
T1 construct: purchased Ambion Inc
Protocol: The ability to transcribe longer ribo-UNAs (rUNAs) using T7 RNA polymerase and the corresponding modified ribonucleotide triphosphates was tested using a linear double-stranded DNA template. A plasmid DNA containing the human retinoblastoma gene under control of a T7 RNA polymerase promoter was digested with the restriction endonucleases XbaI and AflII. The resulting linearized plasmid templates for a 138 nucleotide transcript when transcribed with T7 RNA polymerase (see FIG. 34A).
The transcription reactions (20 uL) contained 1× transcription buffer (Ambion Inc.), 0.5 mM GTP, 0.5 mM ATP (or 2-aminoadenosine-5′-triphosphate (rD)), 0.5 mM UTP (or 2-thiouridine-5′-triphosphate (rS), 1.6 uM α-^32P-CTP, 1 ug of the linearized DNA template and 10 units of T7 RNA polymerase (Ambion Inc.). The reaction mixtures were incubated at 37° C. for one hour and then separated by electrophoresis on a 6%/7M urea polyacrylamide gel.

Bst DNA polymerase [1] = target: T2, Bst DNA polymerase (Geobacillus stearothermophilus, UniProt P52026); assay: Incorporation specificity of 2-thio-2′-deoxycytidine triphosphate opposite template G or I; assay type: biochemical; settings: 5.0 uM dNTP, 45° C.; for primer extension rate: template I
T2 sequence (P52026 1-876): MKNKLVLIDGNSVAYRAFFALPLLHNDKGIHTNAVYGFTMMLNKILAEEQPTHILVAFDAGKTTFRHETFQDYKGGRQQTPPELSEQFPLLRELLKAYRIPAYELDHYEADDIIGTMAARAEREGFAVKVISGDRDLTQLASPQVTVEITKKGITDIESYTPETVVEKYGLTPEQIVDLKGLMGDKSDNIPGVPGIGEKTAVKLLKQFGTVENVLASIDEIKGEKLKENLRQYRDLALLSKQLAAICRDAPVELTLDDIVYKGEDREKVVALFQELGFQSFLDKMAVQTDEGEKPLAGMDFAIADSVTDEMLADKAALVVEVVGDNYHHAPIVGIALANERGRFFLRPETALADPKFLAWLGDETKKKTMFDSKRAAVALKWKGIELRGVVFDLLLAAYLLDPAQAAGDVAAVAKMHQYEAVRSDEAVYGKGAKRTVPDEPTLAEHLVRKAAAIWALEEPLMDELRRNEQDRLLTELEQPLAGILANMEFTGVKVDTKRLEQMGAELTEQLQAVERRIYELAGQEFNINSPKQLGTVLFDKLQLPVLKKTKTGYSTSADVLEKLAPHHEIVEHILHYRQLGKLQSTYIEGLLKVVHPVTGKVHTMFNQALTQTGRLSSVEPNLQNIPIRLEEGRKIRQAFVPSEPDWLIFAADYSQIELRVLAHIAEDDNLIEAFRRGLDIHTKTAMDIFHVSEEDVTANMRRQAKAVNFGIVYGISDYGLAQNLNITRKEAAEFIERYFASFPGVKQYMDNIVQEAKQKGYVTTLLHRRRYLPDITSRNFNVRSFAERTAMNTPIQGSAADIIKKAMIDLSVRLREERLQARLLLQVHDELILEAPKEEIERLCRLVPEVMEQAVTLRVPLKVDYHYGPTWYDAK
Protocol: The reactions were incubated at 45° C. At 5, 10, 20 and 40 minutes, 7.0 uL aliquots were removed and the reaction mixture was separated by electrophoresis on 20%/7M urea polyacrylamide gels. The products were visualized by phosphorimaging.

[2] = 28-mer duplexes; cited from earlier work
[3] = target: T3, SuperScript II MMLV reverse transcriptase (Moloney murine leukemia virus, UniProt P03355, D1183G/D1242N/E1221Q); assay: Synthesis of full-length cUNA from polyadenylated T7-RNA transcripts; assay type: biochemical; settings: additional substitution for GTP; relative to natural dNTP or D/S substituted reactions
T3 construct: 200 units of SuperScript II MMLV reverse transcriptase (InVitrogen); purchased InVitrogen
Protocol: The ability to synthesize full-length UNA copies (cUNAs) of polyadenylated RNA was tested using various reverse transcriptase enzymes and three T7-RNA transcripts having 3′-polyadenylated tails as templates. The three T7-RNA transcripts correspond to the genes for the penicillin binding protein from E. coli (pBp-1), the chlorophyll A/B binding protein from Arabidopsis thaliana (Cab), and nucleotides 5-335 of the Hepatitis C virus (HCV) genome (See FIG. 32 (panel A)). The expected length of the cUNAs generated from the three polyadenylated RNAs using an oligo-dT primer is 1194, 729 and 360 nucleotides respectively (see FIG. 32 (panel B)).
The reverse transcriptase reactions (15.0 uL) were performed in 0.65 mL pre-siliconized microfuge tubes containing the following components: 50 mM Tris-Cl (pH 8.3), 75 mM KCl, 3.0 mM MgCl2, 4.5 mM DTT, 500 uM dGTP (or dITP), 500 uM dATP (or 2-amino-2′-deoxyadenosine-5′-triphosphate), 500 uM TTP (or 2-thiothymidine-5′-triphosphate), 100 uM dCTP, 0.33 uCi of ^32P-α-dCTP, 20 nM each T7-RNA template, 1.0 uM T16N2 primer, 1.0 unit of RNase Out (In Vitrogen), and 200 units of SuperScript II MMLV reverse transcriptase (InVitrogen). The buffer components, RNA template and primer were annealed by heating to 75° C. for 4 minutes and quickly cooled to room temperature. […]

Bst DNA polymerase [4] = target: T4, Bst DNA polymerase (Geobacillus stearothermophilus, UniProt P52026); assay: Single nucleotide extension of 6-mer primers at varying dNTP concentration; assay type: biochemical; settings: for extension efficiency of 6-mer primer compared with natural dNTP: dNTP 0.5 microM to 130 microM, 45° C., 8 hours
T4 construct: purchased New England Biolabs
T4 sequence (P52026 290-876 limits assumed): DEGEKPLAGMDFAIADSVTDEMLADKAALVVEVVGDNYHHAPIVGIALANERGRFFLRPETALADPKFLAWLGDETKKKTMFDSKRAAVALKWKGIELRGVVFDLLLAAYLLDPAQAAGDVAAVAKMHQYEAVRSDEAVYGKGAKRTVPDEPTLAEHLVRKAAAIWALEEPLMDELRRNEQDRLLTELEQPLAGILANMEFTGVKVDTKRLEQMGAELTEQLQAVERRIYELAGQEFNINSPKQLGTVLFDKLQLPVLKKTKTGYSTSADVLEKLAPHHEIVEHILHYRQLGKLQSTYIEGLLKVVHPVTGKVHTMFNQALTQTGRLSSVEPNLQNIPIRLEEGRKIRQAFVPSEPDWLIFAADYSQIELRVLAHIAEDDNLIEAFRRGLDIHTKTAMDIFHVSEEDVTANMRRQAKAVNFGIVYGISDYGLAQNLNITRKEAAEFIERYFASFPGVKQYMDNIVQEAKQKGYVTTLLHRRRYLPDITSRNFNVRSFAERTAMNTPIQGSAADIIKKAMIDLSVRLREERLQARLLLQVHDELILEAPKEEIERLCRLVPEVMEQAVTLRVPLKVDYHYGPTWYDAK
Protocol: To further assess the incorporation efficiency of the modified nucleotides by Bst DNA polymerase, the efficiency for a single nucleotide extension reaction was determined using two 6-mer primers in the presence of varying concentrations of dATP, 2-amino-2′-deoxyadenosine-5′-triphosphate, dTTP or 2-thiothymidine-5′-triphosphate (illustrated as 2-thioTTP) (FIGS. 3A and 4A). For this study, the reaction mixtures contained: 20 mM Tris-Cl (pH 8.8 @ 25° C.), 10 mM KCl, 10 mM (NH4)2SO4, 2 mM MgSO4, 0.1% Triton-X100, 500 nanoM 6-mer primer, 20 nanoM 30-mer DNA template, 0.8 units/microL (˜70 nanoM) Bst DNA polymerase and a dNTP concentration ranging from 0.5 microM to 130 microM. The reaction mixtures were incubated at 45° C. for 8 hours and separated by electrophoresis on 20% denaturing (7M urea) polyacrylamide gels.

T1 sequence (P00573 whole entry): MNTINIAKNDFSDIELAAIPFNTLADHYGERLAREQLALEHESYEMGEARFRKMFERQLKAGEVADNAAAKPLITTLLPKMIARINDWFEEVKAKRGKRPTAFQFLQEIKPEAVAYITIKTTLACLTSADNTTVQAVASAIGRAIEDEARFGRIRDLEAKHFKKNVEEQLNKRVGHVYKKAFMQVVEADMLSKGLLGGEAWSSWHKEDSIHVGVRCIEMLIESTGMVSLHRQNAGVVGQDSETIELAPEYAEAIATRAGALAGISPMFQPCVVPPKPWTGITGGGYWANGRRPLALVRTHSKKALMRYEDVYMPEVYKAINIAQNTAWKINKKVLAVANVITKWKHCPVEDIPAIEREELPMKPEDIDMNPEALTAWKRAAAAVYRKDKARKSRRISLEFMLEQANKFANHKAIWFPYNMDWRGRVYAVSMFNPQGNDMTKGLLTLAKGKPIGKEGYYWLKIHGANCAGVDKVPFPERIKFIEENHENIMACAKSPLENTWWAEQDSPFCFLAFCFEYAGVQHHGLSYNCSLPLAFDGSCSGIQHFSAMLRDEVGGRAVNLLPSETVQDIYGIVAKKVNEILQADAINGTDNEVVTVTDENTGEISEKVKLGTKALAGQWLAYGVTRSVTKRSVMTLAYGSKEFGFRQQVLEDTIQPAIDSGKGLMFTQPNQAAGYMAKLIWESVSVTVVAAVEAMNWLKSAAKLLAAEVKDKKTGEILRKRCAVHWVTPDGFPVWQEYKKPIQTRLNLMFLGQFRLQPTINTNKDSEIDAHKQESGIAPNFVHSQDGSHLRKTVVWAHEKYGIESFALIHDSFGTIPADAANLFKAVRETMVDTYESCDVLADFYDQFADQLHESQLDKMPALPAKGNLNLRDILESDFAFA

## Nc1nc(N)c2ncn([C@@H]3O[C@H](COP(=O)(O)OP(=O)(O)OP(=O)(O)O)[C@@H](O)[C@H]3O)c2n1 [2-aminoadenosine-5′-triphosphate]
T7 RNA polymerase
  full-length product (138 nucleotide transcript): full-length product is generated

## Nc1ccn([C@H]2C[C@H](O)[C@@H](COP(=O)(O)OP(=O)(O)OP(=O)(O)O)O2)c(=S)n1 [2-thio-2′-deoxycytidine triphosphate, 2-thio-2′-deoxycytidine-5′-triphosphate]
Bst DNA polymerase [1]
  primer extension rate: equivalent

## O=c1ccn([C@@H]2O[C@H](COP(=O)(O)OP(=O)(O)OP(=O)(O)O)[C@@H](O)[C@H]2O)c(=S)[nH]1 [2-thiouridine-5′-triphosphate]
T7 RNA polymerase
  full-length product (138 nucleotide transcript): full-length product is generated

## OC[C@H]1O[C@@H](n2cnc3c(O)ncnc32)[C@H](O)[C@@H]1O [I, inosine]
[2]
  change of duplex Tm per modified base pair: −1.9 °C

## O=P(O)(O)OP(=O)(O)OP(=O)(O)OC[C@H]1O[C@@H](n2cnc3c(O)ncnc32)C[C@@H]1O [ITP, 2′-deoxyinosine-5′-triphosphate]
[3]
  reduction of yield of full-length product: about 2 fold

## c1cc2[nH]cncc-2n1 [P, pyrrolo-pyrimidine]
[2]
  change of duplex Tm per modified base pair: −0.5 °C

## Nc1ncnc2c1ncn2[C@H]1C[C@H](O)[C@@H](COP(=O)(O)OP(=O)(O)OP(=O)(O)O)O1 [dATP, 2′-deoxyadenosine-5′-triphosphate, reference compound]
Bst DNA polymerase [4]
  extension efficiency of 6-mer primer compared with natural dNTP: approximately equal efficiencies

## Nc1ccn([C@H]2C[C@H](O)[C@@H](COP(=O)(O)OP(=O)(O)OP(=O)(O)O)O2)c(=O)n1 [dCTP, 2′-deoxycytidine-5′-triphosphate, reference compound]
Bst DNA polymerase [1]; template G
  conversion of the 12-mer primer to the 13-mer extension product: efficient conversion
Bst DNA polymerase [1]
  primer extension rate: equivalent

## Cc1cn([C@H]2C[C@H](O)[C@@H](COP(=O)(O)OP(=O)(O)OP(=O)(O)O)O2)c(=O)[nH]c1=O [dTTP, 2′-deoxythymidine-5′-triphosphate, reference compound]
Bst DNA polymerase [4]
  EC50: ~4 µM
  extension efficiency of 6-mer primer compared with natural dNTP: very similar
